The experiment relates to NF-kB transcriptional activity in HEK-293-NF-kB-Luc cell line overexpressing MALT1. Put plainly: NF-kB reporter assay (luciferase, MALT1 stably overexpressed). The format is cell-based. Conditions: Homo sapiens, 24 h, HEK-293-NF-kB-Luc cells stably overexpressing MALT1, 24 h treatment, Bright Glo luminescence; read-out: NF-kB inhibition IC50. The protocol: The NF-⇐B reporter assay was performed to screen for MALT1 inhibition mediated reduction in the NF-⇐B transcriptional activity. For this purpose, MALT1 was stably overexpressed in HEK-293—NF-⇐B-Luc cell line. Cells were seeded in poly-D-lysine coated 96-well plates in a culture medium containing the selection markers (DMEM+10% FBS+50 |g/ml Hygromycin+500 |g/ml Geniticin) and allowed to adhere overnight. On the following day, cells were treated with various concentrations of test compounds for 24 h. After 24 h of treatment with test compounds, media was removed from each well and Bright Glo™ (Promega, USA) substrate was added and incubated for further 10 min at ambient temperature. Luminescence was measured for detection of NF-⇐B reporter activity. RLUs (Relative Luminescence Units) were directly proportional to the NF-⇐B activity. % inhibition of NF-⇐B activity was calculated relative to the samples containing media with 0.1% DMSO alone as per the following formula
(In general: In a reporter assay the amount or activity of a reporter protein is the signal.)
Regarding `COC(C)c1c(NC(=O)Nc2cnc(-n3ccnn3)c(Cl)c2)cnc2sc(C)nc12` (single isomer, unassigned) [Compound 123b, 1-(5-Chloro-6-(1H-1,2,3-triazol-1-yl)pyridin-3-yl)-3-(7-(1-methoxyethyl)-2-methylthiazolo[5,4-b]pyridin-6-yl)urea], the concentration for half-maximal inhibition (IC50) was 1 to 100 nM. The figure for `Cc1nc2c(C3(CO)CC3)c(NC(=O)Nc3cnc(-n4nccn4)c(Cl)c3)cnc2s1` [Compound 105, 1-(5-Chloro-6-(2H-1,2,3-triazol-2-yl)pyridin-3-yl)-3-(7-(1-(hydroxymethyl)cyclopropyl)-2-methylthiazolo[5,4-b]pyridin-6-yl)urea] is 1 to 100 nM; for `COC(C)c1c(NC(=O)Nc2ccc(-n3nccn3)c(C(F)F)c2)cnc2sc(C)nc12` (single isomer, unassigned) [Compound 207a, (R) or (S)-1-(3-(Difluoromethyl)-4-(2H-1,2,3-triazol-2-yl)phenyl)-3-(7-(1-methoxyethyl)-2-methylthiazolo[5,4-b]pyridin-6-yl)urea] it is 1 to 100 nM. `Cc1nc2c(C(N(C)C)C(F)(F)F)c(NC(=O)Nc3cnc(-n4nccn4)c(Cl)c3)cnc2s1` (stereo not shown) [Compound 231b, 1-(5-Chloro-6-(2H-1,2,3-triazol-2-yl)pyridin-3-yl)-3-(7-(1-(dimethylamino)-2,2,2-trifluoroethyl)-2-methylthiazolo[5,4-b]pyridin-6-yl)urea]: the IC50 is 1 to 100 nM. Regarding `Cc1nc2c(C3CCCO3)c(NC(=O)Nc3ccc(-n4nccn4)c(Cl)c3)cnc2s1` (single isomer, unassigned) [Compound 137a, 1-(3-Chloro-4-(2H-1,2,3-triazol-2-yl)phenyl)-3-(2-methyl-7-(tetrahydrofuran-2-yl)thiazolo[5,4-b]pyridin-6-yl)urea], the IC50 lay within 1 to 100 nM. With `COCC1(c2c(NC(=O)Nc3ccc(-n4nccn4)c(Cl)c3)cnc3sc(C)nc23)CC1` [Compound 64, 1-(3-Chloro-4-(2H-1,2,3-triazol-2-yl)phenyl)-3-(7-(1-(methoxymethyl)cyclopropyl)-2-methylthiazolo[5,4-b]pyridin-6-yl)urea] the figure was 101 to 500 nM; with `COc1ncc(NC(=O)Nc2cnc3sc(C)nc3c2C2CCCO2)cc1Cl` (single isomer, unassigned) [Compound 135a, 1-(5-Chloro-6-methoxypyridin-3-yl)-3-(2-methyl-7-(tetrahydrofuran-2-yl)thiazolo[5,4-b]pyridin-6-yl)urea], 1 to 100 nM.

On to `Cc1nc2c(C3CC3)c(NC(=O)Nc3ccc(-n4ncnc4C)c(Cl)c3)cnc2s1` [Compound 174, 1-(3-Chloro-4-(5-methyl-1H-1,2,4-triazol-1-yl)phenyl)-3-(7-cyclopropyl-2-methylthiazolo[5,4-b]pyridin-6-yl)urea], for which the IC50 was 501 to 1500 nM. As for `COc1nc(-n2nccn2)c(Cl)cc1NC(=O)Nc1cnc2sc(C)nc2c1C(OC)C1CC1` (single isomer, unassigned) [Compound 156a, 1-(5-Chloro-2-methoxy-6-(2H-1,2,3-triazol-2-yl)pyridin-3-yl)-3-(7-(cyclopropyl(methoxy)methyl)-2-methylthiazolo[5,4-b]pyridin-6-yl)urea], the IC50 was in the range of 1 to 100 nM.

As for `COc1nc(OC)c(NC(=O)Nc2cnc3sc(C)nc3c2C(C)C)cc1Cl` [Compound 186, 1-(5-Chloro-2,6-dimethoxypyridin-3-yl)-3-(7-isopropyl-2-methylthiazolo[5,4-b]pyridin-6-yl)urea], the IC50 lay within 501 to 1500 nM. With `Cc1nc2c(C(N(C)C)C(F)(F)F)c(NC(=O)Nc3cnc(-n4nccn4)c(C(F)(F)F)c3)cnc2s1` (stereo not shown) [Compound 230b, 1-(6-(2H-1,2,3-triazol-2-yl)-5-(trifluoromethyl)pyridin-3-yl)-3-(7-(1-(dimethylamino)-2,2,2-trifluoroethyl)-2-methylthiazolo[5,4-b]pyridin-6-yl)urea] the figure was 1 to 100 nM.

On to `Cc1nc2c(C3(C)CC3)c(NC(=O)Nc3cnc(-n4nccn4)c(C(F)(F)F)c3)cnc2s1` [Compound 177, 1-(6-(2H-1,2,3-triazol-2-yl)-5-(trifluoromethyl)pyridin-3-yl)-3-(2-methyl-7-(1-methyleyelopropyl)thiazolo[5,4-b]pyridin-6-yl)urea], for which the IC50 was in the range of 1 to 100 nM. In the case of `COC(c1c(NC(=O)Nc2cnc(-n3nccn3)c(Cl)c2)cnc2sc(C)nc12)C1CC1` (single isomer, unassigned) [Compound 154a, 1-(5-Chloro-6-(2H-1,2,3-triazol-2-yl)pyridin-3-yl)-3-(7-(cyclopropyl(methoxy)methyl)-2-methylthiazolo[5,4-b]pyridin-6-yl)urea], the IC50 fell in the range of 1 to 100 nM. Consider `COCC(C)N(C)c1c(NC(=O)Nc2cnc(-n3nccn3)c(Cl)c2)cnc2sc(C)nc12` (stereo not shown) [Compound 53a, 1-(5-Chloro-6-(2H-1,2,3-triazol-2-yl)pyridin-3-yl)-3-(7-((1-methoxypropan-2-yl)(methyl)amino)-2-methylthiazolo[5,4-b]pyridin-6-yl)urea], for which the IC50 is 1 to 100 nM. Consider `COc1ncc(NC(=O)Nc2cnc3sc(C)nc3c2C2CC2)cc1Br` [Compound 175, 1-(5-Bromo-6-methoxypyridin-3-yl)-3-(7-cyclopropyl-2-methylthiazolo[5,4-b]pyridin-6-yl)urea], for which the IC50 lay in the range of 501 to 1500 nM.

Consider `COc1ccc(NC(=O)Nc2cnc3sc(C)nc3c2C(C)OC)cc1Cl` (single isomer, unassigned) [Compound 118b, 1-(3-chloro-4-methoxyphenyl)-3-(7-(1-methoxyethyl)-2-methylthiazolo[5,4-b]pyridin-6-yl)urea], for which the IC50 was in the range of 101 to 500 nM.

Consider `Cc1nc2c(C(C3CC3)N(C)C)c(NC(=O)Nc3cnc(-n4nccn4)c(Cl)c3)cnc2s1` (stereo not shown) [Compound 228b, 1-(5-Chloro-6-(2H-1,2,3-triazol-2-yl)pyridin-3-yl)-3-(7-(cyclopropyl(dimethylamino)methyl)-2-methylthiazolo[5,4-b]pyridin-6-yl)urea], for which the IC50 was 1 to 100 nM. For the compound `COc1nc(-n2nccn2)c(Cl)cc1NC(=O)Nc1cnc2sc(C)nc2c1C1(C)CC1` [Compound 178, 1-(5-Chloro-2-methoxy-6-(2H-1,2,3-triazol-2-yl)pyridin-3-yl)-3-(2-methyl-7-(1-methyleyelopropyl)thiazolo[5,4-b]pyridin-6-yl)urea], the IC50 lay within 1 to 100 nM.

For the compound `COC(C)c1c(NC(=O)Nc2ccnc(C(F)(F)F)c2)cnc2sc(C)nc12` (single isomer, unassigned) [Compound 130b, 1-(7-(1-Methoxyethyl)-2-methylthiazolo[5,4-b]pyridin-6-yl)-3-(2-(trifluoromethyl)pyridin-4-yl)urea], the IC50 lay within 1 to 100 nM.

Regarding `Cc1ncn(-c2ccc(NC(=O)Nc3cnc4sc(C)nc4c3C3CC3)cc2Cl)n1` [Compound 173, 1-(3-Chloro-4-(3-methyl-1H-1,2,4-triazol-1-yl)phenyl)-3-(7-cyclopropyl-2-methylthiazolo[5,4-b]pyridin-6-yl)urea], the IC50 is 501 to 1500 nM. With `CCOC(C)c1c(NC(=O)Nc2ccc(-n3nccn3)c(Cl)c2)cnc2sc(C)nc12` (racemic) [Compound 161, 1-(3-Chloro-4-(2H-1,2,3-triazol-2-yl)phenyl)-3-(7-(1-ethoxyethyl)-2-methylthiazolo[5,4-b]pyridin-6-yl)urea] the figure was 1 to 100 nM; with `COc1nc(-n2nccn2)c(C(F)(F)F)cc1NC(=O)Nc1cnc2sc(C)nc2c1C(C)OC` (stereo not shown) [Compound 88a, 1-(2-Methoxy-6-(2H-1,2,3-triazol-2-yl)-5-(trifluoromethyl)pyridin-3-yl)-3-(7-(1-methoxyethyl)-2-methylthiazolo[5,4-b]pyridin-6-yl)urea], 1 to 100 nM; with `Cc1nc2c(C3CC3)c(NC(=O)Nc3ccnc(C#N)c3)cnc2s1` [Compound 12, 1-(2-Cyanopyridin-4-yl)-3-(7-cyclopropyl-2-methylthiazolo[5,4-b]pyridin-6-yl)urea], 501 to 1500 nM. With `COC(C)c1c(NC(=O)Nc2cc(C(F)(F)F)cn(C)c2=O)cnc2sc(C)nc12` (single isomer, unassigned) [Compound 133b, 1-(7-(1-methoxyethyl)-2-methylthiazolo[5,4-b]pyridin-6-yl)-3-(1-methyl-2-oxo-5-(trifluoromethyl)-1,2-dihydropyridin-3-yl)urea], the half-inhibitory concentration (IC50) lay within 501 to 1500 nM. `CCC(C)c1c(NC(=O)Nc2cnc(-n3nccn3)c(Cl)c2)cnc2sc(C)nc12` (single isomer, unassigned) [Compound 157a, 1-(7-(sec-Butyl)-2-methylthiazolo[5,4-b]pyridin-6-yl)-3-(5-chloro-6-(2H-1,2,3-triazol-2-yl)pyridin-3-yl)urea]: the IC50 is 1 to 100 nM. Regarding `COC(C)c1c(NC(=O)Nc2cncc(C#N)c2)cnc2sc(C)nc12` (single isomer, unassigned) [Compound 129b, 1-(5-Cyanopyridin-3-yl)-3-(7-(1-methoxyethyl)-2-methylthiazolo[5,4-b]pyridin-6-yl)urea], the IC50 fell in the range of 1 to 100 nM. As to `COC(C)c1c(NC(=O)Nc2cnc(-c3ncc(C)o3)c(Cl)c2)cnc2sc(C)nc12` (single isomer, unassigned) [Compound 148b, 1-(5-Chloro-6-(5-methyloxazol-2-yl)pyridin-3-yl)-3-(7-(1-methoxyethyl)-2-methylthiazolo[5,4-b]pyridin-6-yl)urea], the IC50 was 1 to 100 nM.

Take `COC(c1ccccc1)c1c(NC(=O)Nc2ccc(-n3nccn3)c(Cl)c2)cnc2sc(C)nc12` (stereo not shown) [Compound 82b, 1-(3-Chloro-4-(2H-1,2,3-triazol-2-yl)phenyl)-3-(7-(methoxy(phenyl)methyl)-2-methylthiazolo[5,4-b]pyridin-6-yl)urea]: the IC50 was in the range of 101 to 500 nM.

The term IC50 denotes the midpoint of a concentration-inhibition curve.

Source of the values: patent publication US20190275012A9, “SUBSTITUTED THIAZOLO-PYRIDINE COMPOUNDS AS MALT1 INHIBITORS” (Lupin Limited, priority 2016, published 2019).
